Test results from patent US20080004266A1, “Method for treating proliferative disorders associated with protooncogene products” (priority 2006, published 2008).

Key:
[1] = tested on: A375 cells (B-raf V600E); assay: Cell survival in A375 melanoma cells (Cell Counting Kit-8); type: cell-based, human; conditions: Homo sapiens, A-375, 72 hours
Description: Human melanoma cell line, A375 (2×10^6 cells), which contains the V600E mutation in the B-raf protein that confers constitutive […] kinase activity, was obtained from American Type Culture Collection. A375 cells (20,000 cells/well) were cultured in 96-well plates and maintained at 37° C. for several hours. The cells were incubated at 37° C. for 72 hours with various concentrations of compound 226, 17AAG or 17DMAG. 17AAG and 17DMAG are Hsp90 inhibitors that are currently in clinical trials and are used here as positive controls for Hsp90 inhibition. Cell survival was measured with Cell Counting Kit-8 (Dojindo Laboratories, Cat # CK04).

[2] = tested on: human tumor cell line Kasumi-1; assay: Kasumi-1 (c-Kit N822K) SCID mouse xenograft model; type: in vivo, human (xenograft in SCID mouse); conditions: for % T/C value: SCID mice
From the text: The human acute myelogenous leukemia cell line, Kasumi-1 (ATCC #CRL-2724), was obtained from the American Type Culture Collection (ATCC; Manassas, Va., USA). Growth of this tumor cell line is dependent upon the expression of an activated form of the c-Kit tyrosine kinase receptor carrying a N822K mutation (A. Beghini, et al., Exp. Hematol. 33:682-688, 2005). […] FBS was obtained from ATCC and all other reagents were obtained from Invitrogen Corp. (Carlsbad, Calif., USA). Cells that had been cryopreserved in liquid nitrogen were rapidly thawed at 37° C. and transferred to a tissue culture flask containing growth media and then incubated at 37° C. in a 5% CO2 incubator. To expand the cell line, cultures were passaged 1:2 to a density of 5×10 (6) cells/ml every three days by adding an equal volume of fresh growth media. When the flasks reached a density of approximately 10×10 (6) cells/ml, the above passaging process was repeated until sufficient cells had been obtained for implantation into mice.
Seven to eight week old, female CB17/Icr-Prkdc^scid/Crl (SCID) mice were obtained from Charles River Laboratories (Wilmington, Mass., USA). […]
Tumors were then permitted to develop in vivo until the majority reached 100-200 mm^3 in tumor volume, which typically required 4-5 weeks following implantation. […] Tumor volumes (V) were calculated by caliper measurement of the width (W), length (L) and thickness (T) of tumors using the following formula: V=0.5236×(L×W×T). Animals were randomized into treatment groups so that the median tumor volumes of each group were similar at the start of dosing. % T/C values, as a measure of efficacy, were determined as follows: • (vi) If ΔT>0: % T/C=(ΔT/ΔC)×100 • (vii) If ΔT<0: % T/C=(ΔT/T0)×100 • (viii) ΔT=Change in median tumor volume between start of dosing and the end of study. • (ix) ΔC=Change in median tumor volume between start of dosing and the end of study. • (x) T0=Median tumor volume at start of dosing. […]

[3] = tested on: NCI-H1975 cells (EGFR T790M and L858R); assay: Cell survival in NCI-H1975 cells (Cell Counting Kit-8); type: cell-based, human; conditions: Homo sapiens, 72 hours
Description: Human lung cancer cell line NCI-H1975 which harbors both the T790M and the L858R mutations in EGFR was obtained from American Type Culture Collection. NCI-H1975 (10,000 cells/well) were cultured in 96-well plates and maintained at 37° C. for several hours. The cells were incubated at 37° C. for 72 hours with various concentrations of compound 226 of the invention, 17AAG or DMAG. 17AAG and DMAG are Hsp90 inhibitors that are currently in clinical trials and are used here as positive controls for Hsp90 inhibition. Cell survival was measured with Cell Counting Kit-8 (Dojindo Laboratories, Cat # CK04).

[4] = tested on: Kasumi-1 cells (c-Kit N822K); assay: Cell survival in Kasumi-1 cells (Cell Counting Kit-8); type: cell-based, human; conditions: Homo sapiens, 72 hours
Description: Kasumi-1 cells (20,000 cells/well) were cultured in 96-well plates and maintained at 37° C. for several hours. […] 17AAG and DMAG are Hsp90 inhibitors that are currently in clinical trials and are used here as positive controls for Hsp90 inhibition. […] Cell survival was measured with Cell Counting Kit-8 (Dojindo Laboratories, Cat # CK04).

[5] = tested on: phosphorylated Bcr-Abl; assay: Degradation of Bcr-Abl in KU812 cells (Western blot); type: cell-based; conditions: 18 hours
Description: KU812 chronic myeloid leukemia cells (ATCC) (2×10^6 cells), which harbor the Philadelphia chromosome that produces Bcr-Abl tyrosine kinase, were treated (0.1 μM and 1.0 μM) with either Compound 226, 17-AAG or 17-DMAG. After 18 hours, the cells were lysed with 1× lysis buffer, and a western blot was perform using anti-BCR-ABL antibody to detect phosphorylated Bcr-Abl.

[6] = tested on: K562 cells (Bcr-Abl); assay: Cell survival in K562 cells (Cell Counting Kit-8); type: cell-based, human; conditions: Homo sapiens, 72 hours
Description: Growth of this tumor cell line is dependent upon the expression of the Bcr-Abl fusion protein (C. Gambacarti-Passerini et al., Blood Cells Mol. Dis. 23:380-394, 1997). K562 cells (20,000 cells/well) were cultured in 96-well plates and maintained at 37° C. for several hours. […] 17AAG, DMAG, and Radicical are Hsp90 inhibitors that are currently in clinical trials and are used here as positive controls for Hsp90 inhibition. […] Cell survival was measured with Cell Counting Kit-8 (Dojindo Laboratories, Cat # CK04).

With `CC(C)c1cc(-c2nnc(O)n2-c2ccc3c(ccn3C)c2)c(O)cc1O` [Compound 226, 3-(2,4-di-hydroxy-5-isopropyl-phenyl)-4-(1-methyl-indol-5-yl)-5-hydroxy-[1,2,4] triazole] the IC50 [1] was 4 nM, the “average bodyweight gain relative to the start of the study” value ([2]; 25 mg/kg i.v. 5 times per week, day 50) was “+0.7% (+/−2.0 SEM)” and the “% T/C value” ([2]; 25 mg/kg i.v. 5 times per week, 14 doses, day 50) was −15.3%. For the same molecule, the “% T/C value” ([2]; single dose of 25 mg/kg on day 30, observed day 33 (3 days after the first dose)) was −4.1%, the IC50 [3] was 16 nM and the IC50 [4] was 4 nM. The “degradation of phosphorylated Bcr-Abl” value ([5]; 0.1 μM) was “complete degradation”, the “degradation of phosphorylated Bcr-Abl” value ([5]; 1.0 μM) was “complete degradation” and the IC50 [6] was 14 nM.
